Experimental data published in ChEMBL document CHEMBL1201862, “PubChem BioAssay data set” (2004).
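Where inhibition never reached the appropriate level, the endpoint shown equals the highest concentration tested. Otherwise, values were interpolated linearly from a five-concentration, 48-hour dose response in 96-well plates. Abbreviation: GI50, concentration required for 50% inhibition of growth.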 Active and inactive are the calls of the source. Cut-off read from the data, not from the text of the source: active = GI50 up to about 1.1 µM and inactive = higher.

Tests used:
Assay in all cases: NCI tumour cell line growth inhibition, 48 h
786-0 = tested on: 786-0
ACHN = tested on: ACHN
BT-549 = tested on: BT-549
HCC 2998 = tested on: HCC 2998
HOP-92 = tested on: HOP-92
KM12 = tested on: KM12
M14 = tested on: M14
MCF7 = tested on: MCF7
MDA-MB-435 = tested on: MDA-MB-435
MDA-N = tested on: MDA-N
NCI-H522 = tested on: NCI-H522
NCI/ADR-RES = tested on: NCI/ADR-RES
OVCAR-4 = tested on: OVCAR-4
OVCAR-5 = tested on: OVCAR-5
PC-3 = tested on: PC-3
SF-539 = tested on: SF-539
SK-MEL-28 = tested on: SK-MEL-28
SNB-75 = tested on: SNB-75
UACC-257 = tested on: UACC-257
UO-31 = tested on: UO-31

Measured: GI50

CCCCCCCCCCCCCCCCCCNc1ccn(C2OC(COP(=O)(O)OCC(COP(=O)(O)OCC3OC(n4cc(C)c(=O)[nH]c4=O)CC3N=[N+]=[N-])OCCCCCCCCCCCCCCCCCC)C(O)C2O)c(=O)n1 (stereo not given)
inactive: 786-0 54.1 µM | ACHN > 100 µM | BT-549 90.4 µM | HCC 2998 99.1 µM | HOP-92 20.3 µM | KM12 38.5 µM | M14 > 100 µM | MCF7 34.4 µM | MDA-MB-435 87.1 µM | MDA-N > 100 µM | NCI-H522 12.6 µM | NCI/ADR-RES > 100 µM | OVCAR-4 70.5 µM | OVCAR-5 76.9 µM | PC-3 29.4 µM | SF-539 27 µM | SK-MEL-28 > 100 µM | SNB-75 49 µM | UACC-257 50.1 µM | UO-31 17.7 µM

CC(=O)OC1CCC2(C)C(=CCC3C4CCC5(OC6CC(C)CN(C(C)=O)C6C5C)C(C)=C4C(=O)C32)C1 (stereo not given)
inactive: 786-0 28.1 µM | ACHN 25.5 µM | BT-549 15 µM | HCC 2998 13.7 µM | HOP-92 15 µM | KM12 16.7 µM | M14 12.7 µM | MCF7 10.5 µM | MDA-MB-435 15.3 µM | MDA-N 23.6 µM | NCI-H522 14.9 µM | NCI/ADR-RES 18 µM | OVCAR-4 15.4 µM | OVCAR-5 19.2 µM | PC-3 14.3 µM | SF-539 20.4 µM | SK-MEL-28 > 100 µM | SNB-75 19 µM | UACC-257 13.6 µM | UO-31 31.9 µM

O=C1N[C@H]2C(=O)c3c(Br)sc(Br)c3[C@H]2O1
inactive: 786-0 8.26 µM | ACHN 6.78 µM | BT-549 14.5 µM | HCC 2998 11.7 µM | HOP-92 14.6 µM | KM12 19 µM | M14 3.08 µM | MCF7 10.7 µM | MDA-MB-435 3.89 µM | MDA-N 7.01 µM | NCI-H522 1.55 µM | NCI/ADR-RES 13.4 µM | OVCAR-4 15.3 µM | OVCAR-5 17.7 µM | PC-3 4.95 µM | SF-539 17.4 µM | SK-MEL-28 3.41 µM | SNB-75 16.5 µM | UACC-257 8.07 µM | UO-31 1.86 µM

CC1Cc2c(cc(N)nc2Br)NC1=O (stereo not given)
inactive: 786-0 > 100 µM | ACHN 64.3 µM | BT-549 92.9 µM | HCC 2998 > 100 µM | HOP-92 45.9 µM | KM12 > 100 µM | M14 > 100 µM | MCF7 > 100 µM | MDA-MB-435 62.4 µM | MDA-N 46.1 µM | NCI-H522 > 100 µM | NCI/ADR-RES > 100 µM | OVCAR-4 > 100 µM | OVCAR-5 > 100 µM | PC-3 > 100 µM | SF-539 > 100 µM | SK-MEL-28 > 100 µM | SNB-75 74.8 µM | UACC-257 > 100 µM | UO-31 > 100 µM

COCn1c(C)c(C)c2c(=O)oc(N(C)C)nc21
inactive: 786-0 > 100 µM | ACHN > 100 µM | BT-549 > 100 µM | HCC 2998 > 100 µM | HOP-92 > 100 µM | KM12 > 100 µM | M14 > 100 µM | MCF7 > 100 µM | MDA-MB-435 > 100 µM | MDA-N > 100 µM | NCI-H522 > 100 µM | NCI/ADR-RES > 100 µM | OVCAR-4 > 100 µM | OVCAR-5 > 100 µM | PC-3 > 100 µM | SF-539 > 100 µM | SK-MEL-28 > 100 µM | SNB-75 > 100 µM | UACC-257 > 100 µM | UO-31 9.82 µM
